The target of one assay is T1, α2C adrenoceptor (Homo sapiens, UniProt P18825).
T1 construct: host or cells: CHO
T1 sequence (P18825 1-462): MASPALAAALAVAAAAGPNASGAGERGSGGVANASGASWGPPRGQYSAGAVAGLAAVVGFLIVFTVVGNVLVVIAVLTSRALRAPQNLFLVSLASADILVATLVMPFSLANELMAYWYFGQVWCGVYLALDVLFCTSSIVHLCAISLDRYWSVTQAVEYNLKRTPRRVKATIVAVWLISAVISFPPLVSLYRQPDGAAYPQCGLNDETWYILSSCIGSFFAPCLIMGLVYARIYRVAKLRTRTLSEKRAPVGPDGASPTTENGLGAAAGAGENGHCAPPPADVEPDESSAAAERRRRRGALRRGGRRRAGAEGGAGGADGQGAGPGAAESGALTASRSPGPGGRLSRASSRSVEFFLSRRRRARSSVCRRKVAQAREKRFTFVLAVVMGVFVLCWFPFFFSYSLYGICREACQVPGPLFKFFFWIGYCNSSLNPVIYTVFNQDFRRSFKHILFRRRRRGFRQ
As to the kind of experiment: Agonist screening mode IP-One assay, CHO-α2C/Gα15 cells. In kind it is cell-based. The procedure: (§1) The cells were centrifuged at 1000 rpm for 5 min, and the supernatant was discarded. 3 mL of PBS was added, and the mixture was gently pipetted to be mixed well. The cells were centrifuged again at 1000 rpm for 5 min, and the supernatant was discarded. […] After shaking, the assay plates were left to stand at room temperature for 60 min. • (8) Experimental readings: The plate was read on Envision, readings from the 665 nm and 615 nm channels were taken, and the ratio of 665 nm/615 nm readings was calculated.

A further assay addresses T2, α1A receptor (Homo sapiens, UniProt P35348).
T2 construct: expressed in transfected cells; host or cells: CHO-K1
T2 sequence (P35348 1-466): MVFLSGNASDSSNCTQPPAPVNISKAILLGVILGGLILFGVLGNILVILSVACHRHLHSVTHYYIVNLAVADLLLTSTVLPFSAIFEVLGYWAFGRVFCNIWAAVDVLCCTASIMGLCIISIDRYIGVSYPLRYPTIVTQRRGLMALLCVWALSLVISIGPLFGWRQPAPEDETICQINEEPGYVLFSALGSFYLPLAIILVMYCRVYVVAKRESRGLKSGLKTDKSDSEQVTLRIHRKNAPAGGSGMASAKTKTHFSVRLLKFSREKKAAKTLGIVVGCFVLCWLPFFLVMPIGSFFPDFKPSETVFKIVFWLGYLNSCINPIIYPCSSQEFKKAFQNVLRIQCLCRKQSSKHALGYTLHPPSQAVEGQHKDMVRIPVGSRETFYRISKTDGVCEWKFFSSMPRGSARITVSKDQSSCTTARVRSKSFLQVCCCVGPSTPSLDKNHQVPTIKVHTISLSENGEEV
Description: Competitive receptor binding assay, α1A (3H-Prazosin, CHO-K1-α1A membranes). The protocol:
(§2) Test sample (compound): The theoretical sample weighing amount was calculated according to the designed concentration and the required volume. Generally, the test sample was dissolved in DMSO to an initial preparation dose of 5.0 × 10^-3 M, and the solution was sequentially diluted with DMSO to 5.0 × 10^-4 M-5.0 × 10^-9 M; the diluted DMSO solution was diluted with Buffer to a working concentration of 5.0 × 10^-5 M-5.0 × 10^-11 M; and the final concentration of DMSO in the working solution was 1% (the final concentration of DMSO in the reaction system was 0.2%). The test sample was prepared and then stored at 4 °C. After the test was completed, the test sample was discarded.
(§3) CHO-K1-α1A, CHO-K1-α2A, CHO-K1-α2B, and CHO-K1-α2C cells were taken out of a refrigerator at -80 °C, thawed naturally, and centrifuged at 2000 g at 4 °C for 10 min. The supernatant was discarded, and the pellet was collected. […] The supernatant was discarded, and the buffer was added again. […] The supernatant was discarded, and the pellet was collected and stored at -80 °C.
(§4) Table 1. Experimental conditions for radioactive binding
(§5) Step 1: 50 µL of a vehicle (1% DMSO) was added to a total binding tube (TB), 50 µL of a non-labeled substance (with a final concentration of 1.0 × 10^-5 M) was added to a non-specific binding tube (NB), and 50 µL of a test compound was added to each test compound tube (CB).
(§6) Step 2: 100 µL of a buffer was added to each reaction tube.
(§7) Step 3: The prepared membrane was suspended in a buffer to give a membrane suspension with a corresponding concentration for later use.
(§8) Step 4: 50 µL of the corresponding radioligand was added to each reaction tube.
(§9) Step 5: 50 µL of the membrane suspension was added to each reaction tube.
(§10) Step 6: Each reaction tube was incubated according to the incubation conditions. After the reaction was completed, the binding ligands were rapidly filtered under reduced pressure. The UniFilter GF/C plate was saturated with a 0.5% PEI solution 1 h in advance, fully washed with an ice-cold Tris-HCl buffer, filtered under vacuum, then placed into a thermostatic dryer, and dried for 30 min. The filter plate was taken out, and a MICROSCINT PS scintillation solution was added at 40 µL/well.
(§11) Step 7: The scintillation vial was put into a liquid scintillation counter for counting.
(§12) Based on the effect values of the compound samples at different concentration test points, the GraphPad Prism software was used to fit the action curves of the compound samples to the receptors, and the Ki values were calculated.

The target in another assay is T3, α2C receptor (Homo sapiens, UniProt P18825).
T3 construct: expressed in transfected cells; host or cells: CHO-K1
T3 sequence (P18825 1-462): T1 sequence (P18825 1-462)
As to the kind of experiment: Competitive receptor binding assay, α2C (3H-RX821002, CHO-K1-α2C membranes). The procedure: as §2, §3, §4, §5, §6, §7, §8, §9, §10, §11, §12

The next assay deals with T4, α1A adrenoceptor (Homo sapiens, UniProt P35348).
T4 construct: host or cells: 293
T4 sequence (P35348 1-466): T2 sequence (P35348 1-466)
As to the kind of experiment: Agonist screening mode IP-One assay, 293-α1A cells. Type of assay: cell-based. The procedure: as §1

A further assay addresses T5, α2B receptor (Homo sapiens, UniProt P18089).
T5 construct: expressed in transfected cells; host or cells: CHO-K1
T5 sequence (P18089 1-450): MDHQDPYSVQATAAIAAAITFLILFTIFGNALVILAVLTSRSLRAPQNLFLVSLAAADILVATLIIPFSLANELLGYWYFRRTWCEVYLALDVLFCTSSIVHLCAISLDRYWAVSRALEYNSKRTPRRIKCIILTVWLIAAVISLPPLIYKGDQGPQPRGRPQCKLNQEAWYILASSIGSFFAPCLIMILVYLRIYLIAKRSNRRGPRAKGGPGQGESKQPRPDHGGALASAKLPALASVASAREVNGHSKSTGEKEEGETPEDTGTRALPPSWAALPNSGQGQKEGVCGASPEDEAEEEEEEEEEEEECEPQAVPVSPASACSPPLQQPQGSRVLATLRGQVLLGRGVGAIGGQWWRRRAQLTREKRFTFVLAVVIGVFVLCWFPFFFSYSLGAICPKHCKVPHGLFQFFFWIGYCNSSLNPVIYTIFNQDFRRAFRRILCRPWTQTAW
As to the kind of experiment: Competitive receptor binding assay, α2B (3H-RX821002, CHO-K1-α2B membranes). The procedure:
as §2, §3, §4, §5, §6, §7, §8, §9, §10, §11, §12

In the next assay the target is T6, α2B adrenoceptor (Homo sapiens, UniProt P18089).
T6 construct: host or cells: CHO
T6 sequence (P18089 1-450): T5 sequence (P18089 1-450)
Description: Agonist screening mode IP-One assay, CHO-α2B/Gα15 cells. In kind it is cell-based. The procedure: as §1

[1] abbreviates: Ki, CHO-K1-α1A membranes, 3H-Prazosin, read-out: Binding α1A.
[2] abbreviates: Ki, CHO-K1-α2C membranes, 3H-RX821002, read-out: Binding α2C.
Where [3] appears, read: Ki, CHO-K1-α2B membranes, 3H-RX821002, read-out: Binding α2B.

What is called EC50 is the concentration needed to bring the measured effect to its halfway point.

Each structure is given as a SMILES string. Structures can show the parent of a compound that is named as a salt. Where two headings read alike, the source gives them in different places.

As for `c1cc2c(c(Cc3c[nH]cn3)c1)SCCC2` [Compound 1, 4-[1-(Thiochroman-8-yl)methyl]-1H-imidazole], the EC50 on α2C adrenoceptor was 15.3 nM; on α1A adrenoceptor it was 3.16 nM; at α2B adrenoceptor, 4.09 nM. Further, the Ki on α1A receptor (setting [1]) was determined as 67.9 nM; at α2C receptor (setting [2]) it was 29.3 nM; on α2B receptor (setting [3]) it was 59.1 nM.
Take `CC(c1c[nH]cn1)c1cccc2c1SCCC2` (stereo not drawn) [Compound 2, 4-(1-[Thiochroman-8-yl)ethyl]-1H-imidazole]: the figures for the EC50 at α2C adrenoceptor, on α1A adrenoceptor and on α2B adrenoceptor were 18.4 nM, 5.32 nM and 3.03 nM, respectively. Also, the Ki on α1A receptor (setting [1]) amounted to 91.2 nM; at α2C receptor (setting [2]), 13.8 nM; on α2B receptor (setting [3]), 11.7 nM.
In the case of `CC(c1c[nH]cn1)c1cccc2c1CC2` (stereo not drawn) [Compound 3, 4-(1-(Bicyclo[4.2.0]octa-1(6),2,4-trien-2-yl)ethyl)-1H-imidazole], the results for the EC50 on α2C adrenoceptor, on α1A adrenoceptor and on α2B adrenoceptor were 191 nM, 57 nM and 5.51 nM, respectively. Also, the Ki on α1A receptor amounted to 1130 nM; at α2C receptor, 26.1 nM; at α2B receptor it was 62.3 nM.
For `CC(c1c[nH]cn1)c1cccc2c1CCCC2` (stereo not drawn) [Compound 4, 4-(1-(5,6,7,8-Tetrahydronaphthalen-1-yl)ethyl)-1H-imidazole], the EC50 was 278 nM on α2C adrenoceptor, 25.1 nM on α1A adrenoceptor and 54.4 nM at α2B adrenoceptor. The Ki at α1A receptor came to 2050 nM; on α2C receptor, 46.1 nM; at α2B receptor, 64.6 nM.
On to `CC(c1c[nH]cn1)c1cccc2c1C=CC2` (stereo not drawn) [Compound 8, 4-[1-(1H-Inden-4-yl)ethyl]-1H-imidazole], for which the results for the EC50 at α2C adrenoceptor, on α1A adrenoceptor and at α2B adrenoceptor were 9.89 nM, 21.8 nM and 17.7 nM, respectively. Moreover, the Ki at α1A receptor was 1130 nM; at α2C receptor it was 18.9 nM; on α2B receptor it was 37.7 nM.
Turning to `CC(c1c[nH]cn1)c1cccc2c1OCC2` (stereo not drawn) [Compound 10, 4-[1-(2,3-Dihydrobenzofuran-7-yl)ethyl]-1H-imidazole], the EC50 at α2C adrenoceptor is 3.99 nM; on α1A adrenoceptor, 24.1 nM; on α2B adrenoceptor, 1.66 nM. In addition, the Ki on α1A receptor came out at 766 nM; at α2C receptor, 6.44 nM; at α2B receptor, 6.05 nM.
Turning to `C[C@H](c1c[nH]cn1)c1cc(F)cc2c1C=CC2` [Compound 11-b, 4-[(1S)-1-(6-fluoro-1H-inden-4-yl)ethyl]-1H-imidazole], the EC50 at α2C adrenoceptor stood at 0.87 nM; on α1A adrenoceptor, 36.8 nM; on α2B adrenoceptor, 2.55 nM. Also, the figures for the Ki on α1A receptor, at α2C receptor and at α2B receptor were 671 nM, 23.8 nM and 54.8 nM, respectively.
`CC(c1c[nH]cn1)c1cccc2c1C=CC2(C)C` (stereo not drawn) [Compound 17, 4-[1-(1,1-Dimethyl-1H-inden-4-yl)ethyl]-1H-imidazole]: the EC50 at α2C adrenoceptor came out at 134 nM; on α1A adrenoceptor it was 104 nM; at α2B adrenoceptor, 6.59 nM. For the same compound, the Ki was greater than 10000 nM on α1A receptor, 594 nM on α2C receptor and 244 nM on α2B receptor.
`C[C@H](c1c[nH]cn1)c1cccc2c1CCC2` [Compound 31-b, (S)-4-[1-(2,3-dihydro-1H-inden-4-yl)ethyl]-1H-imidazole]: the EC50 on α2C adrenoceptor is 1.78 nM; on α1A adrenoceptor, 7.94 nM; on α2B adrenoceptor, 1.08 nM. For the same compound, the Ki at α1A receptor was 424 nM; on α2C receptor, 10.8 nM; on α2B receptor it was 32.9 nM.
For the compound `CC1Cc2cccc(C(C)c3c[nH]cn3)c2O1` (stereo not drawn) [Compound 32, 4-[1-(2-Methyl-2,3-dihydrobenzofuran-7-yl)ethyl]-1H-imidazole], the EC50 at α2C adrenoceptor amounted to 8.13 nM; at α1A adrenoceptor it was 4.73 nM; on α2B adrenoceptor, 2.23 nM. Further, the Ki at α1A receptor turned out to be 137 nM; at α2C receptor it was 26.1 nM; on α2B receptor, 28.1 nM.
On to `C[C@H](c1c[nH]cn1)c1cc(F)cc2c1C(=O)CC2` [Compound 38-b, (S)-7-(1-(1H-imidazol-4-yl)ethyl)-5-fluoro-2,3-dihydro-1H-inden-1-one], for which the EC50 at α2C adrenoceptor is 2.21 nM; at α1A adrenoceptor it was 9.75 nM; on α2B adrenoceptor it was 3.84 nM. The Ki at α1A receptor (setting [1]) is 3160 nM; at α2C receptor (setting [2]) it was 36.4 nM; at α2B receptor (setting [3]) it was 49.1 nM.
Turning to `Cc1cccc([C@H](C)c2cnc[nH]2)c1C` [Dexmedetomidine hydrochloride, reference compound], the EC50 stood at 2.05 nM on α2C adrenoceptor, 9.55 nM on α1A adrenoceptor and 0.96 nM on α2B adrenoceptor. Besides, the Ki was determined as 593 nM on α1A receptor (setting [1]), 7.34 nM on α2C receptor (setting [2]) and 3.66 nM at α2B receptor (setting [3]).

Source of the values: EP4729516A1, “S[…] DERIVATIVE, INTERMEDIATE, PREPARATION METHOD THEREFOR AND USE THEREOF” (Jiangsu NHWA Pharmaceutical Co., Ltd, priority 2023, dated 2024).
